The subject of experiment [1] is human CD14+ monocytes migrating across human BBB-endothelial cells. Description: In vitro model of the human BBB (Boyden chamber): CD14+ monocyte migration. Format: cell-based. Conditions: human Ninj26-37 peptide 0.4 mM on BBB-ECs 1 h before cells; 24 h migration; vs scramble peptide. As to the method:
In vitro model of the BBB. BBB-ECs grown in primary cultures were used to generate an in vitro model of the human BBB, as published previously (Cayrol et al., Nature Immunol 9(2): 137-45 Epub 2007 Dec. 23). Human BBB-endothelial cells (25×10^3 cells/chamber) were grown in primary culture on 3 μm porous membrane (Becton Dickinson Labware, Franklin Lakes, N.J., USA), coated with 0.5% gelatin (Sigma), in endothelial cell culture media supplemented with 40% ACM, for 4 days to reach confluency. The BBB-endothelial cells were treated with 0.4 mM of scramble peptide (WRGNPGIRWAPH, SEQ ID NO: 12), 0.4 mM of human Ninj26-37 (PARWGWRHGPIN; SEQ ID NO: 5), 10 μg/ml of sheep IgG isotype control or 10 μg/ml of sheep anti-human Ninjurin-1 blocking Ab one hour prior to the addition of the leukocytes. Human ex vivo CD14^+ monocytes, or CD4^+, or CD8^+ lymphocytes were isolated, from consenting healthy donors, as described above. The leukocytes were added to the upper chamber (1×10^6 cells/chamber) and were allowed to migrate across human BBB-endothelial cells for 24 h. The cells that migrated through the BBB-endothelial cells, were recovered from the lower chamber and counted manually. All migration data shown represent at least 3 independent experiments performed in triplicate.

The subject of a further experiment is SCI mice. The experiment is described as follows: Spinal cord injury (SCI), contusion with Infinite Horizons impactor. Format: in vivo, C57BL/6 mice. As to the method: Immunofluorescent stainings of human and mouse CNS material. Luxol Fast Blue (LFB) and H&E stainings (Wosik et al., 2007) were performed on human and mouse brain tissue specimens obtained from four MS patients (autopsy) and EAE/SCI animals. Sections showing acute demyelinating lesions and active perivascular mononuclear cell infiltration were selected (8 to 12 blocks per MS donor), and compared to normal-appearing white matter from the same donors (8 blocks per donor) and to non-neurological disease controls (3 donors; 9-11 blocks per donor). Mean age was 49±6 years and disease duration ranged from 3 to 23 years. The cause of death was pneumonia (2), urosepsis (1) and barbiturate intoxication (1). […] Fluorescence was visualized on a Leica™ DM6000 B epifluorescent microscope equipped with a DFC480 digital camera (Leica Microsystems, Wetzlar Germany) or on a Leica™ SP5 confocal microscope. Images were acquired using Openlab™ 4.0.4 (Improvision, Waltham, Mass.) and processed and analyzed with Adobe Photoshop™ CS2 (Adobe, Mountain View, Calif.). Numbers of CD11c+ DCs, F4/80+ macrophages and MHC II+ cells in spinal cord were quantified in pictures of 15 random fields of the spinal cord (two mice per treatment group). […]
Spinal cord injury. […] Locomotor recovery was evaluated in an open-field test using the Basso Mouse Scale (BMS) (Basso D. M. et al., (2006). J Neurotrauma. 23(5): 635-59). […]

The next experiment deals with EAE mice. Description: Experimental autoimmune encephalomyelitis (EAE) induced with MOG35-55/CFA. Format: in vivo, C57BL/6 mice. The method, then:
Flow Cytometric analysis of Ninjurin-1 expression. Cells were harvested and resuspended in FACS buffer composed of PBS supplemented with 1% FBS (Biosource-Invitrogen) and 0.1% NaN3 (Sigma). The cells were incubated with HS (Biosource-Invitrogen) to prevent unspecific binding. BBB-endothelial cells and PBMCs were incubated for 1 h at 4° C. with the primary unconjugated monoclonal mouse anti-Ninjurin-1 antibody (20 μg/ml, BD Biosciences), or with the Functional Grade Purified Mouse IgG2a Isotype Control (20 μg/ml, ebioscience, Inc., San Diego, Calif., USA). Cells were then incubated for 30 min at 4° C. with an allophycocyanin (APC)-conjugated goat anti-mouse Ig (2 μg/ml, BD Biosciences) to detect specific binding. Cells were then counter-stained for 30 min at 4° C. with mouse anti-human conjugated antibodies: Human Leukocyte Antigen (HLA)-ABC, Intracellular cell adhesion molecule (ICAM)-1, CD3, CD4, CD8, CD19, HLA-DR, CD14, CD83, CD123, CD209, CD11c or with corresponding isotype controls (all from BD Biosciences). To study the expression of Ninjurin-1 on murine immune cells, the mouse monoclonal anti-Ninjurin-1 antibody was biotinylated, to prevent unspecific binding of the secondary antibody. A buffer exchange was performed with a Slide-A-Lyzer® Dialysis Cassette (3.5-20K Cassettes, Thermo Scientific, Rockford, Ill., USA) to remove glycerol and bovine serum albumin (BSA) from the antibody solution using Melon™ Gel IgG Spin Purification Kit. Biotin was added using the EZ-Link® Micro NHS-PEO4-Biotinylation kit according to the manufacturer's instructions (Thermo Scientific). Murine peripheral blood or CNS mononuclear cells were incubated for 1 h at 4° C. with the primary biotinylated monoclonal mouse anti-Ninjurin-1 antibody (5 μg/ml, BD Biosciences), or with the Biotin-conjugated IgG2a, K isotype control (5 μg/ml, ebioscience). Cells were then incubated for 30 min at 4° C. with secondary antibody […]—APC (2 μg/ml, BD Biosciences). […] Cells were acquired on a BD LSR™ II Flow cytometer and analyzed using the BD FACSDiva™ software (BD Biosciences). […]

In the case of “PARWGWRHGPIN (SEQ ID NO: 5) (listed as Homo sapiens) [human Ninj26-37]”, the “migration of CD14+ monocytes across human BBB-endothelial cells” value in experiment [1] is reported as “significantly restricts the migration”.
For the sequence “PPRWGLRNRPIN (SEQ ID NO: 6) (Peptide corresponding to residues 26 to 37 of human Ninjurin-1) [mouse Ninj26-37]”, the “infiltration of Iba1+ and CD11c+ myeloid cells in the spinal cord of SCI animals” value in the experiment on SCI mice (murine Ninj26-37 200 μg i.p. b.i.d. day 1 to 7 after injury, day 7 post-injury, vs control peptide) is “reduced”. For the same sequence, the “clinical scores (Basso mouse scale, BMS) after SCI” value with SCI mice (murine Ninj26-37 200 μg i.p. twice a day, vs control animals) is on record as “reduced”. Also, the “demyelination (tissue damage) and immune cell infiltration in EAE spinal cord, Luxol fast blue-H&E” value in the experiment on EAE mice (Ninj26-37 200 μg i.p. twice daily day 3 to 23, vs control group) is “reduction in immune cell infiltration and demyelination”. In addition, in the experiment with EAE mice (Ninj26-37 200 μg i.p. twice daily, 14 days post-immunization, vs control/scramble), the “infiltrating MHC II+, F4/80+ and CD11c+ myeloid cells in EAE spinal cord, immunofluorescence and cell counts” value is given as “reduction of infiltrating”. In the experiment with EAE mice (mouse Ninj26-37 200 μg i.p. twice a day, day 3 to 23 post-immunization, vs PBS (FIG. 6A) or scramble peptide (FIG. 15)), the “EAE neurological signs, symptoms and clinical scores” value is “significant reduction of the neurological signs, symptoms and clinical scores”.

The values are drawn from patent US8703711B2, “Ninjurin-1 modulation and uses thereof” (Val-Chum, Limited Partnership, priority 2009, dated 2014).
